This note sets out measurements from ChEMBL document CHEMBL1145320, “3,4,5-Trisubstituted isoxazoles as novel PPARdelta agonists: Part 1” (Bioorg Med Chem Lett, 2006).

pEC50: −log10 of the molar value. Some results are limits rather than exact numbers.

In assay [1] the target is T1, Peroxisome proliferator-activated receptor alpha (Homo sapiens, UniProt Q07869).
T1 sequence (Q07869 whole entry): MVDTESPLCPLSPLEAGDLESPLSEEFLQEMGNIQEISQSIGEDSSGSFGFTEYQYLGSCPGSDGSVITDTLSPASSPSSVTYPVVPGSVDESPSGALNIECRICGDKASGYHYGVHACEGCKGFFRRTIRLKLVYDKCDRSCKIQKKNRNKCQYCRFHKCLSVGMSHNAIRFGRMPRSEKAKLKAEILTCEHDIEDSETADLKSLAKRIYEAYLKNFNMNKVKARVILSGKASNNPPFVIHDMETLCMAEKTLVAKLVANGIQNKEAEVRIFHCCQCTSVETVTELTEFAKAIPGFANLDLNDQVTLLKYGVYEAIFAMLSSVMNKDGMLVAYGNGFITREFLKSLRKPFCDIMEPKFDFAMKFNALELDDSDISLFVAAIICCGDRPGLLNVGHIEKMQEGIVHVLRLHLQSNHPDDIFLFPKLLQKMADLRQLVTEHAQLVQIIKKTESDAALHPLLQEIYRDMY
The experiment in a line: Agonist activity at PPARalpha by transactivation assay. In kind it is functional. The settings on record: for pEC50: read-out: EC50.

Assay [2] addresses T2, Peroxisome proliferator-activated receptor gamma (Homo sapiens, UniProt P37231).
T2 sequence (P37231 whole entry): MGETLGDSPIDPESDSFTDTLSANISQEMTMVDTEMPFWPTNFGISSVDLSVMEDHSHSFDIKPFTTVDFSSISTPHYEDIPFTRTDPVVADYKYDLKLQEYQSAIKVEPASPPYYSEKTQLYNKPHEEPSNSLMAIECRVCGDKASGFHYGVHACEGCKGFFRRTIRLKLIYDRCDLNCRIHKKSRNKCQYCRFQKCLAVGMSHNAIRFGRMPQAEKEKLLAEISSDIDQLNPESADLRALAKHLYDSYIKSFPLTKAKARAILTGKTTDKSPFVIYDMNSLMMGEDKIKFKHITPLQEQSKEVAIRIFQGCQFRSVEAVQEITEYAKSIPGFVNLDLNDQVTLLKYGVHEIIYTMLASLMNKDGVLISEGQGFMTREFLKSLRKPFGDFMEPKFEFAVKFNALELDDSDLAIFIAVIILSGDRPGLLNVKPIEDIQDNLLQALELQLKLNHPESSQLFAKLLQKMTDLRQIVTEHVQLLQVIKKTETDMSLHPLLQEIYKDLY
The experiment in a line: Agonist activity at PPARgamma by transactivation assay. In kind it is functional. The settings on record: for pEC50: read-out: EC50.

Assay [3] deals with T3, Peroxisome proliferator-activated receptor delta (Homo sapiens, UniProt Q03181).
T3 sequence (Q03181 whole entry): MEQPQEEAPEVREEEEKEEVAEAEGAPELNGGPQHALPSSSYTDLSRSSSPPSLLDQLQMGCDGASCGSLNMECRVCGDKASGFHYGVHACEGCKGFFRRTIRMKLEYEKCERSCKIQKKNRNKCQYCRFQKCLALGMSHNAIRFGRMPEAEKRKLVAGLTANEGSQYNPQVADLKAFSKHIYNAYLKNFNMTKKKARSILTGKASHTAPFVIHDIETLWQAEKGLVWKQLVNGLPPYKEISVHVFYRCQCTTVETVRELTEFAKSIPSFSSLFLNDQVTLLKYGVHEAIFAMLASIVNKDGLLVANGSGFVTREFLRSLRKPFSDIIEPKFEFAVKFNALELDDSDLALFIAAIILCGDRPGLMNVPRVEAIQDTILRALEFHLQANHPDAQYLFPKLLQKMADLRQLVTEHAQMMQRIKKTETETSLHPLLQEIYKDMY
Description: (§1) Agonist activity at PPARdelta by transactivation assay

The target of assay [4] is T3, Peroxisome proliferator-activated receptor delta. The source holds these as a separate data set.
Description: as §1

The term pEC50 denotes the EC50 on a negative log10 scale, so that one unit is a factor of ten.

With `Cc1onc(-c2ccc(CC(=O)O)cc2Cl)c1C(=O)NCCOc1ccc(C(F)(F)F)cc1`, the pEC50 in assay [1], in assay [2] and in assay [3] was less than 5.00 throughout.

For `CN(CCOc1ccc(Cl)cc1Cl)C(=O)c1c(-c2ccc(CC(=O)O)cc2Cl)noc1-c1ccccc1`, the pEC50 in assay [1] was less than 5.00; in assay [2], less than 5.00; in assay [3] it was 5.44.

As to `O=C(O)Cc1ccc(-c2noc(-c3ccccc3)c2C(=O)NCCOc2ccc(Cl)cc2Cl)c(Cl)c1`, the pEC50 in assay [1] was less than 5.00; in assay [2] it was less than 5.00; in assay [3] it was 7.10.

`Cc1cc(SCc2cc(-c3c(Cl)cccc3Cl)no2)ccc1OCC(=O)O`: the EC50 result in assay [1], in assay [2] and in assay [4] was “Not Active” in each case.

For the compound `O=C(O)Cc1ccc(-c2noc(C(=O)CCCOc3ccc(Cl)cc3Cl)c2-c2ccccc2)c(Cl)c1`, the EC50 entry in assay [1], in assay [2] and in assay [4] was “Not Active” each time.

Regarding `O=C(O)Cc1ccc(-c2noc(-c3ccco3)c2C(=O)NCCOc2ccc(Cl)cc2Cl)c(Cl)c1`, the pEC50 in assay [1] is less than 5.00; in assay [2] it was less than 5.00; in assay [3], 8.00.

With `CC(C)(C)c1onc(-c2ccc(CC(=O)O)cc2Cl)c1C(=O)NCCOc1ccc(Cl)cc1Cl`, the results for the pEC50 in assay [1], in assay [2] and in assay [3] were less than 5.00, less than 5.00 and 5.59, respectively.

With `O=C(O)Cc1ccc(-c2noc(C3CC3)c2C(=O)NCCOc2ccc(Cl)cc2Cl)c(Cl)c1`, the results for the pEC50 in assay [1], in assay [2] and in assay [3] were 5.78, 5.49 and 7.52, respectively.

Regarding `Cc1onc(-c2ccc(CC(=O)O)cc2Cl)c1COCCOc1ccc(C(F)(F)F)cc1[N+](=O)[O-]`, the results for the pEC50 in assay [1], in assay [2] and in assay [3] were 6.66, less than 5.00 and 6.89, respectively.

As for `Cc1onc(-c2ccc(CC(=O)O)cc2Cl)c1C(=O)NCCOc1ccc(C(F)(F)F)cc1[N+](=O)[O-]`, the values for the pEC50 in assay [1], in assay [2] and in assay [3] were 6.47, 5.90 and 8.40, respectively.

As for `O=C(O)Cc1ccc(-c2noc(-c3ccccc3)c2C(=O)CCCOc2ccc(Cl)cc2Cl)c(Cl)c1`, the pEC50 in assay [1] is less than 5.00; in assay [2] it was less than 5.00; in assay [3], 7.52.

In the case of `Cc1onc(-c2ccc(CC(=O)O)cc2Cl)c1C(=O)NCCOc1ccc(C(F)(F)F)cc1C(F)(F)F`, the results for the pEC50 in assay [1], in assay [2] and in assay [3] were less than 5.00, less than 5.00 and 6.59, respectively.

As for `CC(C)c1onc(-c2ccc(CC(=O)O)cc2Cl)c1C(=O)NCCOc1ccc(Cl)cc1Cl`, the pEC50 in assay [1] is 5.15; in assay [2] it was less than 5.00; in assay [3], 7.05.

Regarding `Cc1onc(-c2ccc(CC(=O)O)cc2Cl)c1C(=O)NCCOc1ccc(Cl)cc1Cl`, the pEC50 in assay [1] is less than 5.00; in assay [2], less than 5.00; in assay [3], 6.51.

For `Cc1onc(-c2ccc(CC(=O)O)cc2Cl)c1C(=O)NCCOc1ccccc1[N+](=O)[O-]`, the pEC50 in assay [1], in assay [2] and in assay [3] was less than 5.00 throughout.

As for `CCc1onc(-c2ccc(CC(=O)O)cc2Cl)c1C(=O)NCCOc1ccc(Cl)cc1Cl`, the pEC50 in assay [1] is less than 5.00; in assay [2], less than 5.00; in assay [3], 6.96.

As to `O=C(O)Cc1ccc(-c2noc(-c3ccccc3)c2COCCOc2ccc(Cl)cc2Cl)c(Cl)c1`, the values for the pEC50 in assay [1], in assay [2] and in assay [3] were less than 5.00, less than 5.00 and 6.72, respectively.

Consider `Cc1onc(-c2c(Cl)cccc2Cl)c1C(=O)OCCOc1ccc(C(F)(F)F)cc1[N+](=O)[O-]`, for which the pEC50 in assay [1] is less than 5.00; in assay [2], less than 5.00; in assay [3], 6.64.
